Legend:
[1] = system: Mouse cortical cell cultures; assay: Fe2+-induced free radical neurotoxicity in cortical cell cultures (LDH release); assay type: cell-based; conditions: for Protection against free radical neurotoxicity compared with parent compound: comparison with BAS or NBAS
Procedure: (§1) Primary cortical cell cultures from embryonic mice were prepared and used to examine neuroprotective action of compounds. Mouse cortical cell culture system has been extensively used to study mechanisms and pharmacological intervention of neuronal death in neurological diseases. In brief, mouse cerebral cortices were removed from brains of the 15 day-old-fetal mice, in accordance with a protocol approved by our institutional animal care committee. The neocortices were gently triturated and plated on 24 well plates (5 hemispheres/plate) precoated with 100 μg/ml poly-D-lysine and 4 μg/ml laminin. Plating media consist of Eagles minimal essential media (MEM, Earles salts, supplied glutamine-free) supplemented with 5% horse serum, 5% fetal bovine serum, 2 mM glutamine, and 21 mM glucose. Cultures were maintained at 37° C. in a humidified 5% CO2 atmosphere. After 7 days in vitro (DIV 7), cultures were shifted into a growth medium identical to the plating medium but lacking fetal serum. At DIV 7-9, 10 mM cytosine arabinofuranoside was included to halt overgrowth of glia. Mixed cultures of neurons and glia were then fed twice a week.
(§2) The percent neuronal death was normalized to the mean LDH value released 24 hr after continuous exposure 500 μM NMDA (=100) or a sham control (=0).
(§3) The neuroprotective action of 5-amino salicylic acid (AS) was examined in primary cortical cell cultures. Mouse cortical cell cultures (DIV 12-14) were exposed to 300μ M NMDA for 10 min (1a), continuously to 50μ M Fe^2+ (1b), or 300μ M Zn^2+ for 30 min (1c), alone or with inclusion of 10-300μ M 5-amino salicylic acid (AS). Neuronal death was analyzed 24 hr later by measuring levels of LDH released into the bathing medium, mean±SEM (n=9-12 (1a), n=4-8 (1b) or n=4 (1c) culture wells per condition), scaled to mean LDH efflux value 24 hr after sham wash (=0) and continuous exposure to 500μ M NMDA (=100).
(§4) Neuronal death was analyzed 24 hr later by measuring levels of LDH released into the medium, meant SEM (n=7-8 (2a), n=3-6 (2b), n=4 (2c), or n=4 (2d) culture wells per condition). FIG. 2. indicates significant difference from relevant control, at p<0.05 using ANOVA and Student-Neuman-Keuls test.
(§5) 5-(pentafluorobenzyl)amino salicylic acid (PBAS) was synthesized and tested against neuronal injuries. Mouse cortical cell cultures (DIV 12-14) were exposed to 300μ M NMDA for 10 min (8a), continuously to 50μ M Fe^2+ (8b) or 10 mM BSO (8c), or 300μ M Zn^2+ for 30 min (8d), alone or with inclusion of indicated doses of 5-(pentafluorobenzyl)amino salicylic acid (PBAS). Neuronal death was analyzed 24 hr later by measuring levels of LDH released into the medium, mean t SEM (n=11-16 (8a), n=3-6 (8b), n=4-11 (8c), or n=12 (8d) culture wells per condition).
(§6) Mouse cortical cell cultures (DIV 12-14) were exposed to 300μ M NMDA for 10 min (11a) or continuously to 50μ M Fe^2− (11b), alone or with inclusion of indicated doses of 5-(4-nitrobenzyl)-N-acetylamino-2-acetoxy ethylbenzoate (NNAAE). Neuronal death was analyzed 24 hr later by measuring levels of LDH released into the medium, mean±SEM (n=10-12 (11a), n=7-8 (11b), or n=4 (11c) culture wells per condition).
(§7) Mouse cortical cell cultures (DIV 12-14) were exposed to 300μ M NMDA for 10 min (15a) or continuously to 50μ M Fe^2− (15b), alone or with inclusion of indicated doses of 5-[3-(4-nitrophenyl)-n-propyl]aminosalicylic acid (NPPAA). Neuronal death was analyzed 24 hr later by measuring levels of LDH released into the medium, mean±SEM (n=4 (15a) or n=3-8 (15b) culture wells per condition).

[2] = system: Mouse cortical cell cultures; assay: BSO-induced free radical neurotoxicity in cortical cell cultures (LDH release); assay type: cell-based; conditions: 10 mM BSO continuously; compound 1 μM
Procedure: as §1, with “After 7 days in vitro (DIV 7), cultures were shifted into a growth medium identical to the plating medium but lacking fetal serum. At DIV 7-9, 10 mM cytosine arabinofuranoside was included to halt overgrowth of glia. Mixed cultures of neurons and glia were then fed twice a week.” left out
(§8) Neuronal death was analyzed 24 hr later by measuring levels of LDH released into the medium, meant SEM (n=7-8 (2a), n=3-6 (2b), n=4 (2c), or n=4 (2d) culture wells per condition). […]
5-(pentafluorobenzyl)amino salicylic acid (PBAS) was synthesized and tested against neuronal injuries. […] Neuronal death was analyzed 24 hr later by measuring levels of LDH released into the medium, mean t SEM (n=11-16 (8a), n=3-6 (8b), n=4-11 (8c), or n=12 (8d) culture wells per condition).

[3] = system: Mouse cortical cell cultures; assay: NMDA-induced neuronal death in cortical cell cultures (LDH release); assay type: cell-based; conditions: 300 μM NMDA 10 min
Procedure: as §1, §2, §3, §4, §5, §6, §7

[4] = system: Mouse cortical cell cultures; assay: Zn2+ neurotoxicity in cortical cell cultures (LDH release); assay type: cell-based; conditions: 300 μM Zn2+ 30 min
Procedure: as §1, with “Cultures were maintained at 37° C. in a humidified 5% CO2 atmosphere. After 7 days in vitro (DIV 7), cultures were shifted into a growth medium identical to the plating medium but lacking fetal serum. At DIV 7-9, 10 mM cytosine arabinofuranoside was included to halt overgrowth of glia. Mixed cultures of neurons and glia were then fed twice a week.” left out
The neuroprotective action of 5-amino salicylic acid (AS) was examined in primary cortical cell cultures. […] Neuronal death was analyzed 24 hr later by measuring levels of LDH released into the bathing medium, mean±SEM (n=9-12 (1a), n=4-8 (1b) or n=4 (1c) culture wells per condition), scaled to mean LDH efflux value 24 hr after sham wash (=0) and continuous exposure to 500μ M NMDA (=100).
as §8

[5] = Anti-oxidant effect: decrease in DPPH absorption at 517 nm; assay type: biochemical; conditions: for A517 nm (DPPH): 100 uM DPPH in ethanol, 30 min, mean±SEM
Procedure: To examine anti-oxidant effect, DPPH (2,2-diphenyl-1-picryl-hydrazyl radical), a stable free radical, was dissolved in ethanol to make a 100μ M solution. A compound was reacted with DPPH or ethanol. After incubation for 30 min, relative decrease in DPPH absorption at 517 nm was measured by a spectrophotometer.
AS or trolox was reacted with 100 uM DPPH dissolved in ethanol for 30 min. Anti-oxidant property was analyzed by measuring changes in the level of DPPH at 517 nm, mean±SEM (n=3 test tubes per condition), after subtracting background value resulting from ethanol alone.
Anti-oxidant property was analyzed by measuring changes in DPPH at 517 nm, mean±SEM (n=3 test tubes per condition), after subtracting background value resulting from ethanol alone.
NBAS was reacted with 100 uM DPPH dissolved in ethanol for 30 min. Anti-oxidant property was analyzed by measuring changes in DPPH at 517 nm, mean±SEM (n=3 test tubes per condition), after subtracting background value resulting from ethanol alone.
PBAS was reacted with 100 uM DPPH dissolved in ethanol for 30 min. Anti-oxidant property was analyzed by measuring changes in DPPH at 517 nm, mean±SEM (n=3 test tubes per condition), after subtracting background value resulting from ethanol alone.
NBAS derivatives (100μ M for each) were reacted with 100 μM DPPH dissolved in ethanol for 30 min. Anti-oxidant property was analyzed by measuring changes in DPPH at 517 nm, meant SEM (n=3 test tubes per condition), after subtracting background value resulting from ethanol alone.

[6] = 50 μM Fe2+ continuously, compound 10 μM
[7] = 50 μM Fe2+ continuously, compound 1 μM

Structure (SMILES): CCOC(=O)c1cc(N(Cc2ccc([N+](=O)[O-])cc2)C(C)=O)ccc1OC(C)=O [NNAAE, 5-(4-nitrobenzyl)-N-acetylamino-2-acetoxy ethylbenzoate]
- Effect on Fe2+-induced neuronal death, in words [1, 6]: blocked

Structure (SMILES): CCOC(=O)c1cc(NCc2ccc([N+](=O)[O-])cc2)ccc1O [NAHE, 5-(4-nitrobenzyl)amino-2-hydroxy ethylbenzoate]
- Effect on Fe2+-induced neuronal death, in words [1, 6]: blocked

Structure (SMILES): O=C(O)c1cc(NCc2c(F)c(F)c(F)c(F)c2F)ccc1O [PBAS, 5-(pentafluorobenzyl)aminosalicylic acid]
- Effect on Fe2+-induced neuronal death, in words [1, 7]: significantly reduced
- Effect on Fe2+-induced neuronal death, in words ([1]; 50 μM Fe2+ continuously, compound 3 μM): near completely blocked
- Effect on BSO-induced neuronal death, in words [2]: blocked
- Reduction of NMDA-induced neuronal death ([3]; compound 300 μM, LDH 24 hr later): ~65%
- Effect on NMDA-induced neuronal death, in words ([3]; compound 100-1000 μM): reduced NMDA-induced neuronal death in a dose-dependent manner
- Effect on NMDA-induced neuronal death, in words ([3]; compound up to 1 mM): completely blocked
- Effect on Zn2+-induced neuronal death, in words ([4]; compound 100-300 μM): attenuated
- Anti-oxidant property against DPPH, in words ([5]; DPPH, a stable free radical): reduced levels of DPPH
- A517 nm (DPPH) ([5]; compound 1 μM): 1.07 ± 0.07
- A517 nm (DPPH) ([5]; compound 3 μM): 1.01 ± 0.07
- A517 nm (DPPH) ([5]; compound 10 μM): 0.71 ± 0.09
- A517 nm (DPPH) ([5]; compound 30 μM): 0.21 ± 0.04
- A517 nm (DPPH) ([5]; compound 100 μM): 0.15 ± 0.02
- A517 nm (DPPH) ([5]; compound 300 μM): 0.16 ± 0.01

Structure (SMILES): O=C(O)c1cc(NCc2ccc([N+](=O)[O-])cc2)ccc1O [NBAS, 5-(4-nitrobenzyl)aminosalicylic acid]
- A517 nm (DPPH) ([5]; compound 10 μM): 0.37 ± 0.1
- A517 nm (DPPH) ([5]; compound 30 μM): 0.04 ± 0.01
- A517 nm (DPPH) ([5]; compound 100 μM): 0.04 ± 0.00
- A517 nm (DPPH) ([5]; compound 300 μM): 0.04 ± 0.00

Structure (SMILES): Cc1c(C)c2c(c(C)c1O)CCC(C)(C(=O)O)O2 (stereo not drawn) [Trolox, reference compound]
- A517 nm (DPPH) ([5]; compound 3 μM): 1.08 ± 0.1
- A517 nm (DPPH) ([5]; compound 10 μM): 0.89 ± 0.08
- A517 nm (DPPH) ([5]; compound 30 μM): 0.39 ± 0.06
- A517 nm (DPPH) ([5]; compound 100 μM): 0.05 ± 0.01
- A517 nm (DPPH) ([5]; compound 300 μM): 0.03 ± 0.01

Structure (SMILES): Nc1ccc(O)c(C(=O)O)c1 [AS, 5-amino salicylic acid, reference compound]
- Effect on Fe2+-induced neuronal death, in words ([1]; 50 μM Fe2+ continuously 24 hr, compound 10-100 μM): dose-dependently prevented
- Effect on NMDA-induced neuronal death, in words ([3]; compound 10-300 μM, LDH 24 hr later): did not attenuate
- Effect on Zn2+-induced neuronal death, in words ([4]; compound 10-300 μM during and post Zn2+ treatment): not reduced

Structure (SMILES): O=C(O)c1cc(NCCCc2ccc([N+](=O)[O-])cc2)ccc1O [NPPAA, 5-[3-(4-nitrophenyl)-n-propyl]aminosalicylic acid]
- Effect on Fe2+-induced neuronal death, in words [1, 7]: complete blockade
- Protection against free radical neurotoxicity compared with parent compound [1]: more effective than NBAS
- Effect on NMDA-induced neuronal death, in words ([3]; compound 300 μM): slightly reduced
- A517 nm (DPPH) ([5]; compound 100 μM): 0.09 ± 0.02

Structure (SMILES): CCOC(=O)c1cc(N(Cc2ccc([N+](=O)[O-])cc2)C(C)=O)ccc1O [NNAHE, 5-(4-nitrobenzyl)-N-acetylamino-2-hydroxy ethylbenzoate]
- Effect on Fe2+-induced neuronal death, in words [1, 6]: blocked

Structure (SMILES): O=C(Nc1ccc(O)c(C(=O)O)c1)c1ccc([N+](=O)[O-])cc1 [NBAA, 5-(4-nitrobenzoyl)aminosalicylic acid]
- Protection against free radical neurotoxicity compared with parent compound [1]: weaker than NBAS
- Effect on NMDA-induced neuronal death, in words ([3]; compound 30 μM): significantly attenuated
- Effect on NMDA-induced neuronal death, in words ([3]; compound 30-300 μM): not further increased
- A517 nm (DPPH) ([5]; compound 100 μM): 0.42 ± 0.22

Structure (SMILES): O=C(O)c1cc(NS(=O)(=O)c2ccc([N+](=O)[O-])cc2)ccc1O [NBSAA, 5-(4-nitrobenzenesulfonyl)aminosalicylic acid]
- Protection against free radical neurotoxicity compared with parent compound [1]: weaker than NBAS
- Effect on NMDA-induced neuronal death, in words ([3]; compound 300 μM): markedly reduced
- Effect on NMDA-induced neuronal death, in words ([3]; compound 30-300 μM): attenuated NMDA neurotoxicity in a dose-dependent manner
- A517 nm (DPPH) ([5]; compound 100 μM): 0.15 ± 0.05

Structure (SMILES): O=C(O)c1cc(NCCc2ccc([N+](=O)[O-])cc2)ccc1O [NPAA, 5-[2-(4-nitrophenyl)-ethyl]aminosalicylic acid]
- Effect on Fe2+-induced neuronal death, in words [1, 7]: complete blockade
- Protection against free radical neurotoxicity compared with parent compound [1]: more effective than NBAS
- Effect on NMDA-induced neuronal death, in words ([3]; compound 300 μM): slightly reduced
- A517 nm (DPPH) ([5]; compound 100 μM): 0.09 ± 0.01

Source: patent US8211877B2, “Compounds, compositions and methods for preventing neurodegeneration in acute and chronic injuries in the central nervous system” (Neurotech Pharmaceuticals Co., Ltd., priority 2000, dated 2012)
